Like-named read-outs stand apart in the source and are kept apart here.
Experiments:
[1] = molecular target: T1, GDP-loaded KRAS4b (amino acids 1-169) G12C/C118S protein (Homo sapiens, UniProt P01116, C118S/G12C); test: Covalent cysteine 12 modification by MALDI-TOF MS, GDP-loaded KRAS G12C; type: binding; settings: 15 minutes reaction time point
T1 construct: KRAS4b (amino acids 1-169) G12C/C118S protein; made in house
Summary of the method: (§1)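 KRAS4b 1-169 G12C/C118S loaded with GDP, GppNHp or GTP was used at 1 μM in 20 mM HEPES, 150 mM NaCl, 1 mM MgCl2, pH 7.3, and incubated with compound (5 mM DMSO stock) at room temperature in the dark. % modification at 15 min is adduct peak height over total protein peak heights by linear-mode MALDI-TOF.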

[2] = molecular target: T2, GTP-loaded KRAS4b (amino acids 1-169) G12C/C118S protein (Homo sapiens, UniProt P01116, C118S/G12C); test: Covalent cysteine 12 modification by MALDI-TOF MS, GTP-loaded KRAS G12C; type: binding; settings: 15 minutes reaction time point
T2 construct: KRAS4b (amino acids 1-169) G12C/C118S protein; made in house
Summary of the method: as §1

[3] = molecular target: T3, Avi-KRAS G12C (1-169) GppNHp/RAF1 RBD-3×FLAG (52-151) (Homo sapiens, UniProt P01116, G12C); test: Raf1 RBD-KRAS G12C-GppNHp disruption (protein:protein interaction HTRF assay); type: biochemical
T3 construct: Avi-KRAS G12C (1-169) GppNHp/RAF1 RBD-3×FLAG (52-151)
Summary of the method: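 HTRF measuring disruption of 50 nM Avi-KRAS G12C (1-169) loaded with GppNHp binding RAF1 RBD-3×FLAG (52-151), in pH 7.5 Tris buffer with 5 mM MgCl2, 0.1% BSA, 10% DMSO. KRAS preincubated with compound 1 h, then RBD 1 h, then detection reagents 1 h, all at room temperature. Compound titration 30-0.02 μM; activity expressed as percent of DMSO control.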

[4] = molecular target: T4, GppNHp-loaded KRAS4b (amino acids 1-169) G12C/C118S protein (Homo sapiens, UniProt P01116, C118S/G12C); test: Covalent cysteine 12 modification by MALDI-TOF MS, GppNHp-loaded KRAS G12C; type: binding; settings: 15 minutes reaction time point
T4 construct: KRAS4b (amino acids 1-169) G12C/C118S protein; made in house
Summary of the method: as §1

[5] = test system: pERK in NCI-H358 cells; test: Cell-based pERK HTRF assay; settings: 30 min incubation, read-out: pERK in NCI-H358 cell inhibition IC50
Summary of the method: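 Cells seeded at 4×10^4/well in RPMI with 10% FBS, then next day treated for 30 min with a 9-point, 3-fold series from 75 μM top concentration at 0.25% DMSO. Lysates were read for pERK by HTRF (d2/Eu cryptate antibodies) after 4–24 h at room temperature, emission at 615 nm.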

SMILES	GDP-KRAS G12C percent of modification [1]	GTP-KRAS G12C percent of modification [2]	IC50 [3]	GppNHp-KRAS G12C percent of modification [4]	IC50 ([5]; Homo sapiens, NCI-H358, 0.5 h)	IC50 [5]
C=CC(=O)N1C[C@H](Oc2nc(OC[C@@]34CCCN3C[C@H](F)C4)nc3c(F)c(-c4ccc(F)c5sc(N)c(C#N)c45)ncc23)[C@@H](F)C1 [Compound 75]	A (percent of modification ≥70%)	A (percent of modification ≥70%)	≤ 500 nM	A (percent of modification ≥70%)	≤ 100 nM	
C=CC(=O)N1CC[C@@H](Oc2nc(OC[C@@]34CCCN3C[C@H](F)C4)nc3c(F)c(-c4ccc(F)c5sc(N)c(C#N)c45)ccc23)[C@H]1C [Compound 76, 4-(4-(((2R,3R)-1-acryloyl-2-methylpyrrolidin-3-yl)oxy)-8-fluoro-2-(((2R,7aS)-2-fluorotetrahydro-1H-pyrrolizin-7a (5H)-yl)methoxy)quinazolin-7-yl)-2-amino-7-fluorobenzo[b]thiophene-3-carbonitrile]	A (percent of modification ≥70%)	A (percent of modification ≥70%)	≤ 500 nM	A (percent of modification ≥70%)	≤ 100 nM	
C=CC(=O)N1C[C@H](Oc2nc(OC[C@@]34CCCN3C[C@H](F)C4)nc3c(F)c(-c4ccc(F)c5sc(N)c(C#N)c45)ccc23)[C@@H](F)C1 [Compound 77]	A (percent of modification ≥70%)	A (percent of modification ≥70%)	≤ 500 nM	A (percent of modification ≥70%)	≤ 100 nM	
C=CC(=O)N1C[C@@H](F)[C@@H](Oc2nc(OC[C@@]34CCCN3C[C@H](F)C4)nc3c(F)c(-c4ccc(F)c5sc(N)c(C#N)c45)ccc23)C1 [Compound 80]	A (percent of modification ≥70%)	A (percent of modification ≥70%)	≤ 500 nM	A (percent of modification ≥70%)	≤ 100 nM	
C=CC(=O)N1CC[C@@H](Oc2nc(N3CC(N4CC5(CC5)C4)C3)nc3c(F)c(-c4ccc(F)c5sc(N)c(C#N)c45)ncc23)C1 [Compound 87]	A (percent of modification ≥70%)	D (percent of modification <10%)	500 to 5000 nM	C (10%≤modification <50%)	100 to 1000 nM	
C=CC(=O)N1CC[C@@H](Oc2nc(OC[C@@]34CCCN3C[C@H](F)C4)nc3c(F)c(-c4ccc(F)c5sc(N)nc45)ccc23)[C@H]1C [Compound 88]	C (10%≤modification <50%)	C (10%≤modification <50%)	≤ 500 nM	C (10%≤modification <50%)	100 to 1000 nM	
C=CC(=O)N1C[C@@H](F)[C@@H](Oc2nc(OC[C@@]34CCCN3C[C@H](F)C4)nc3c(F)c(-c4ccc(F)c5sc(N)c(C#N)c45)c(Cl)cc23)C1 [Compound 93]	A (percent of modification ≥70%)	B (50≤percent of modification <70%)	≤ 500 nM	A (percent of modification ≥70%)	≤ 100 nM	
C=CC(=O)N1CC[C@@H](Oc2nc(OC[C@@]34CCCN3C[C@H](F)C4)nc3c(F)c(-c4ccc(F)c5sc(N)c(C#N)c45)ccc23)[C@H]1COC [Compound 97]	A (percent of modification ≥70%)	A (percent of modification ≥70%)	≤ 500 nM	A (percent of modification ≥70%)	≤ 100 nM	
C=CC(=O)N1CC[C@@H](Oc2nc(OCC34CCCN3CCC4)nc3c(F)c(-c4ccc(F)c5sc(N)c(C#N)c45)c(C(F)(F)F)cc23)[C@H]1C [Compound 100]	B (50≤percent of modification <70%)	C (10%≤modification <50%)	≤ 500 nM	C (10%≤modification <50%)	100 to 1000 nM	
C=CC(=O)N1CC[C@@H](Oc2nc(OC[C@@H]3CCCN3C)nc3c(F)c(-c4ccc(F)c5sc(N)c(C#N)c45)c(C(F)(F)F)cc23)[C@H]1C [Compound 101]	A (percent of modification ≥70%)	C (10%≤modification <50%)	≤ 500 nM	B (50≤percent of modification <70%)	≤ 100 nM	

More lines, now with the values ahead:

GDP-KRAS G12C percent of modification [1]	GTP-KRAS G12C percent of modification [2]	IC50 [3]	GppNHp-KRAS G12C percent of modification [4]	IC50 ([5]; Homo sapiens, NCI-H358, 0.5 h)	IC50 [5]	SMILES
A (percent of modification ≥70%)	A (percent of modification ≥70%)	≤ 500 nM	A (percent of modification ≥70%)	≤ 100 nM		C=CC(=O)N1CC[C@@H](Oc2nc(OC[C@@]34CCCN3C[C@H](F)C4)nc3c(F)c(-c4ccc(F)c5sc(N)c(C#N)c45)ncc23)[C@H]1C [Compound 73, 4-(4-(((2R,3R)-1-acryloyl-2-methylpyrrolidin-3-yl)oxy)-8-fluoro-2-(((2R,7aS)-2-fluorotetrahydro-1H-pyrrolizin-7a (5H)-yl)methoxy)pyrido[4,3-d]pyrimidin-7-yl)-2-amino-7-fluorobenzo[b]thiophene-3-carbonitrile]
C (10%≤modification <50%)	D (percent of modification <10%)	≤ 500 nM	C (10%≤modification <50%)	≤ 100 nM		C=CC(=O)N1CCC(Oc2nc(N3CC(N4CC5(CC5)C4)C3)nc3c(F)c(-c4ccc(F)c5sc(N)c(C#N)c45)c(C(F)(F)F)cc23)C1 (centres unmarked) [Compound 78]
A (percent of modification ≥70%)	C (10%≤modification <50%)	≤ 500 nM	B (50≤percent of modification <70%)	≤ 100 nM		C=CC(=O)N1C[C@@H](F)[C@@H](Oc2nc(OC[C@@]34CCCN3C[C@H](F)C4)nc3c(F)c(-c4ccc(F)c5sc(N)nc45)ccc23)C1 [Compound 82]
A (percent of modification ≥70%)	C (10%≤modification <50%)	≤ 500 nM	B (50≤percent of modification <70%)	≤ 100 nM		C=CC(=O)N1C[C@H](Oc2nc(OC[C@@]34CCCN3C[C@H](F)C4)nc3cc(-c4ccc(F)c5sc(N)c(C#N)c45)c(C(F)(F)F)nc23)C[C@H]1C [Compound 83]
C (10%≤modification <50%)	C (10%≤modification <50%)	≤ 500 nM	C (10%≤modification <50%)		≤ 100 nM	C=CC(=O)N1C[C@H](Oc2nc(OC[C@@]34CCCN3C[C@H](F)C4)nc3cc(-c4ccc(F)c5sc(N)c(C#N)c45)c(C(F)(F)F)nc23)C[C@H]1C [Compound 84]
A (percent of modification ≥70%)	C (10%≤modification <50%)	≤ 500 nM	B (50≤percent of modification <70%)	≤ 100 nM		C=CC(=O)N1CC[C@@H](Oc2nc(OC[C@@]34CCCN3C[C@H](F)C4)nc3cc(-c4ccc(F)c5sc(N)c(C#N)c45)c(C(F)(F)F)nc23)[C@H]1C [Compound 91]
A (percent of modification ≥70%)	B (50≤percent of modification <70%)	≤ 500 nM	A (percent of modification ≥70%)	≤ 100 nM		C=CC(=O)N1CC[C@@H](Oc2nc(OC[C@@]34CCCN3C[C@H](F)C4)nc3c(F)c(-c4ccc(F)c5sc(N)c(C#N)c45)c(Cl)cc23)[C@H]1C [Compound 94]
B (50≤percent of modification <70%)	C (10%≤modification <50%)	≤ 500 nM	B (50≤percent of modification <70%)	100 to 1000 nM		C=CC(=O)N1CC[C@@H](Oc2nc(OC[C@@]34CCCN3C[C@H](F)C4)nc3cc(-c4ccc(F)c5sc(N)c(C#N)c45)c(C(F)(F)F)cc23)[C@H]1C [Compound 98]
B (50≤percent of modification <70%)	B (50≤percent of modification <70%)	≤ 500 nM	B (50≤percent of modification <70%)	≤ 100 nM		C=CC(=O)N1CC[C@@H](Oc2nc(OC[C@@]34CCCN3C[C@H](OC)C4)nc3c(F)c(-c4ccc(F)c5sc(N)c(C#N)c45)c(C(F)(F)F)cc23)[C@H]1C [Compound 99]
